Columns and labels:
Felis catus = assay: Hypotensive activity in anaesthetized cat assessed as blood pressure fall at 2 umol/kg, iv; format: functional
[1] = biological target: 5-hydroxytryptamine receptor 2A (Rattus norvegicus) (UniProt P14842); assay: Displacement of [3H]ketanserin from rat cloned 5HT2A receptor expressed in NIH-3T3-GF6 cells at 10^-6M relative to ketanserin; format: cell-based
[2] = biological target: 5-hydroxytryptamine receptor 2A (Rattus norvegicus, UniProt P14842); assay: Displacement of [3H]ketanserin from rat cloned 5HT2A receptor expressed in NIH-3T3-GF6 cells; format: cell-based
Chain of 5-hydroxytryptamine receptor 2A (P14842 whole entry): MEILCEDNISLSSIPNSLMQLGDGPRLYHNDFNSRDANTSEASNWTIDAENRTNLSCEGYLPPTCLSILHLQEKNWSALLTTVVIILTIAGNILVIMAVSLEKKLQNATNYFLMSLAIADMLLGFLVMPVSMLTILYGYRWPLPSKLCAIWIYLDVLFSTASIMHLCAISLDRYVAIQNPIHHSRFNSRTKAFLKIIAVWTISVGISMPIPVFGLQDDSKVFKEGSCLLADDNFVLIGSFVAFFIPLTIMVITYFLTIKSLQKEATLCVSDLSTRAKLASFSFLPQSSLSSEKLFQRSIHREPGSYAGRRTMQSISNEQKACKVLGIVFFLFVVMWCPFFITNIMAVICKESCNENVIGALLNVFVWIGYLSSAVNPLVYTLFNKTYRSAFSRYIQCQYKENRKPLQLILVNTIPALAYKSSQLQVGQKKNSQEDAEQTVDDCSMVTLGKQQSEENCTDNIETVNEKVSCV

Chain of 5-hydroxytryptamine receptor 2A (Rattus norvegicus) (P14842 whole entry): as above

SMILES	Activity (Felis catus) [%]	Activity [1] [%]	Ki [2] [µM]
Cc1cccc(N2CCN(CCCSc3ccc(F)cc3)CC2)c1	38.3		
Cc1ccc(SCCCN2CCN(c3ccc(Cl)c(Cl)c3)CC2)cc1	36.36		
Cc1cccc(N2CCN(CCCSc3ccc([N+](=O)[O-])cc3)CC2)c1	84.41	80.5	0.0211
O=[N+]([O-])c1ccc(SCCCN2CCN(c3ccc(F)cc3)CC2)cc1	25.87		
COc1ccc(N2CCN(CCCSc3ccc(F)cc3)CC2)cc1	12.49	25.7	
Cc1ccccc1N1CCN(CCCSc2ccc(F)cc2)CC1	37.59		
CCNc1ccc(SCCCN2CCN(c3ccccc3C)CC2)cc1	48.65		
COc1ccc(SCCCN2CCN(c3ccc(F)cc3)CC2)cc1	17.46		
Fc1ccc(N2CCN(CCCSc3ccccc3)CC2)cc1	20.69		
c1ccc(SCCCN2CCN(c3ccccc3)CC2)cc1	41.07	37.4	
Fc1ccc(N2CCN(CCCSc3ccc(Br)cc3)CC2)cc1	19.86		
Cc1ccc(SCCCN2CCN(c3cccc(C)c3)CC2)cc1	55.74		
Clc1ccc(N2CCN(CCCSc3ccccc3)CC2)cc1Cl	45.83		
COc1ccc(SCCCN2CCN(c3cccc(C)c3)CC2)cc1	21.4		
CC(=O)Nc1ccc(SCCCN2CCN(c3cccc(C)c3)CC2)cc1	55	94.7	0.00609
Cc1ccccc1N1CCN(CCCSc2ccc([N+](=O)[O-])cc2)CC1	42		
Fc1ccc(SCCCN2CCN(c3ccc(Cl)c(Cl)c3)CC2)cc1	38.3		
Fc1ccc(SCCCN2CCN(c3cccc(F)c3)CC2)cc1	34		
CC(=O)Nc1ccc(SCCCN2CCN(c3ccccc3C)CC2)cc1	51.61	72.7	0.0211
Cc1ccc(SCCCN2CCN(c3ccccc3C)CC2)cc1	61.02		
Cc1cccc(N2CCN(CCCSc3ccc(Cl)cc3)CC2)c1	43.8		

SMILES	Activity (Felis catus) [%]	Activity [1] [%]	Ki [2] [µM]
Cc1cccc(N2CCN(CCCSc3ccccc3)CC2)c1	65.15	75.6	0.0136
COc1ccc(SCCCN2CCN(c3cccc(F)c3)CC2)cc1	17.02		
Cc1cccc(N2CCN(CCCSc3ccc(N)cc3)CC2)c1	24.28		
Fc1ccc(SCCCN2CCN(c3ccccc3)CC2)cc1	14.28	37	
COc1ccccc1N1CCN(CCCSc2ccccc2)CC1	26.23		
CCNc1ccc(SCCCN2CCN(c3cccc(C)c3)CC2)cc1	41.14		
Clc1ccc(SCCCN2CCN(c3ccc(Cl)c(Cl)c3)CC2)cc1	26.58		
Nc1ccc(SCCCN2CCN(c3ccc(F)cc3)CC2)cc1	13.51		
CC(=O)Nc1ccc(SCCCN2CCN(c3ccc(Cl)c(Cl)c3)CC2)cc1	20		
Cc1ccc(SCCCN2CCN(c3ccc(F)cc3)CC2)cc1	21.74		
COc1ccc(SCCCN2CCN(c3cccc(Cl)c3)CC2)cc1	42.62		
Cc1ccccc1N1CCN(CCCSc2ccc(Cl)cc2)CC1	40		
COc1ccc(N2CCN(CCCSc3ccc(Br)cc3)CC2)cc1	23.06	37.1	
Clc1cccc(N2CCN(CCCSc3ccccc3)CC2)c1	55.99		
Fc1ccc(SCCCN2CCN(c3ccc(F)cc3)CC2)cc1	20.66	32.9	
COc1ccc(N2CCN(CCCSc3ccccc3)CC2)cc1	15.38		
CC(=O)Nc1ccc(SCCCN2CCN(c3ccc(F)cc3)CC2)cc1	21.21	85.4	
COc1ccccc1N1CCN(CCCSc2ccc(Br)cc2)CC1	21.59		
COc1ccc(SCCCN2CCN(c3cccc(C(F)(F)F)c3)CC2)cc1	53.42		
COc1ccc(SCCCN2CCN(c3ccc(Cl)c(Cl)c3)CC2)cc1	21.05		
Fc1ccc(N2CCN(CCCSc3ccc(Cl)cc3)CC2)cc1	42.31		
